According to ChEMBL document CHEMBL5579826, “Discovery of autophagy-tethering compounds as potent NLRP3 degraders for IBD Immunotherapy” (Eur J Med Chem, 2024):
Each block holds one compound with its values, some of them ahead of it. Calls of active or inactive are those of the source. No cut-off for these calls is given here.

Columns and labels:
[1] = biological target: Interleukin-1 beta (Homo sapiens) (UniProt P01584); experiment: Inhibition of IL-1beta in PMA-differentiated human THP-1 cells at 100 nM co-incubated with compound and LPS for 24 hrs by ELISA relative to control; assay type: cell-based
Chain of Interleukin-1 beta (Homo sapiens) (P01584 117-269 limits assumed): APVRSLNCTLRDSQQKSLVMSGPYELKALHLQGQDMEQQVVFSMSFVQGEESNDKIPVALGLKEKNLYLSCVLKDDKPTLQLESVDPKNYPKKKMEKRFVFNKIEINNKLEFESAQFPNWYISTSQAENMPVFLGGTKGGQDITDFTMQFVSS

[2] = biological target: Interleukin-1 beta (Homo sapiens) (UniProt P01584); experiment: Inhibition of IL-1beta in PMA-differentiated human THP-1 cells at 200 nM co-incubated with compound and LPS for 24 hrs by ELISA relative to control; assay type: cell-based
[3] = test system: THP-1; experiment: Cytotoxicity against PMA-differentiated human THP-1 cells assessed as reduction in cell viability at 50 to 5000 nM incubated for 24 hrs by MTT assay; assay type: toxicity, cell-based; conditions: thp-1, 24 h, 5 µM, dose 50-5000 nM
[4] = test system: THP-1; experiment: Effect on NLRP3 mRNA expression in PMA-differentiated human THP-1 cells co-incubated with compound and LPS for 24 hrs by qRT-PCR analysis; assay type: functional, cell-based
[5] = Half life in C57BL/6J mouse at 5 mg/kg, iv measured for 24 hrs by LC-MS/MS analysis; assay type: ADME, organism-based; conditions: in vivo
[6] = AUC (0 to t) in C57BL/6J mouse at 5 mg/kg, iv measured for 24 hrs by LC-MS/MS analysis; assay type: ADME, organism-based; conditions: in vivo
[7] = AUC (0 to infinity) in C57BL/6J mouse at 5 mg/kg, iv measured for 24 hrs by LC-MS/MS analysis; assay type: ADME, organism-based; conditions: in vivo
[8] = Apparent volume of distribution in C57BL/6J mouse at 5 mg/kg, iv measured for 24 hrs by LC-MS/MS analysis; assay type: ADME, organism-based; conditions: in vivo, read-out: Vz
[9] = Clearance in C57BL/6J mouse at 5 mg/kg, iv measured for 24 hrs by LC-MS/MS analysis; assay type: ADME, organism-based; conditions: in vivo
[10] = Volume of distribution at steady state in C57BL/6J mouse at 5 mg/kg, iv measured for 24 hrs by LC-MS/MS analysis; assay type: ADME, organism-based; conditions: in vivo, read-out: Vdss
[11] = Half life in C57BL/6J mouse at 5 mg/kg, ip measured for 24 hrs by LC-MS/MS analysis; assay type: ADME, organism-based; conditions: in vivo
[12] = Cmax in C57BL/6J mouse at 5 mg/kg, ip measured for 24 hrs by LC-MS/MS analysis; assay type: ADME, organism-based; conditions: in vivo
[13] = AUC (0 to t) in C57BL/6J mouse at 5 mg/kg, ip measured for 24 hrs by LC-MS/MS analysis; assay type: ADME, organism-based; conditions: in vivo
[14] = AUC (0 to infinity) in C57BL/6J mouse at 5 mg/kg, ip measured for 24 hrs by LC-MS/MS analysis; assay type: ADME, organism-based; conditions: in vivo
[15] = Oral bioavailability in C57BL/6J mouse at 5 mg/kg measured for 24 hrs by LC-MS/MS analysis; assay type: ADME, organism-based; conditions: in vivo
[16] = test system: Mus musculus; experiment: Anti-inflammatory activity in DSS-induced colitis C57BL/6 mouse model assessed as reduction in weight loss at 5 to 20 mg/kg, ip administered daily for 10 days; assay type: functional, organism-based; conditions: dose 5-20 mg/kg, time 10.0 day
[17] = test system: Mus musculus; experiment: Anti-inflammatory activity in DSS-induced colitis C57BL/6 mouse model assessed as suppression of disease activity index administered intraperitoneally daily for 10 days; assay type: functional, organism-based; conditions: dose 5-20 mg/kg, route ip, time 10.0 day
[18] = test system: Mus musculus; experiment: Anti-inflammatory activity in DSS-induced colitis C57BL/6 mouse model assessed as reduction in colon tissue shortening at 5 to 20 mg/kg, ip administered daily for 10 days; assay type: functional, organism-based; conditions: dose 5-20 mg/kg, time 10.0 day
[19] = test system: Mus musculus; experiment: Anti-inflammatory activity in DSS-induced colitis C57BL/6 mouse model assessed as reduction in intestinal mucosal damage in colon tissue at 5 to 20 mg/kg, ip administered daily for 10 days by H and E staining based analysis; assay type: functional, organism-based; conditions: dose 5-20 mg/kg, time 10.0 day
[20] = test system: Mus musculus; experiment: Anti-inflammatory activity in DSS-induced colitis C57BL/6 mouse model assessed as reduction in inflammatory cell infiltration in colon tissue at 5 to 20 mg/kg, ip administered daily for 10 days by H and E staining based analysis; assay type: functional, organism-based; conditions: dose 5-20 mg/kg, time 10.0 day
[21] = test system: Mus musculus; experiment: Anti-inflammatory activity in DSS-induced colitis C57BL/6 mouse model assessed as reduction in loss of intestinal crypts in colon tissue at 5 to 20 mg/kg, ip administered daily for 10 days by H and E staining based analysis; assay type: functional, organism-based; conditions: dose 5-20 mg/kg, time 10.0 day
[22] = test system: Mus musculus; experiment: Anti-inflammatory activity in DSS-induced colitis C57BL/6 mouse model assessed as reduction in NLRP3 level in colon tissue at 5 to 20 mg/kg, ip administered daily for 10 days by IHC analysis; assay type: functional, organism-based; conditions: dose 5-20 mg/kg, time 10.0 day
[23] = test system: Mus musculus; experiment: Anti-inflammatory activity in DSS-induced colitis C57BL/6 mouse model assessed as reduction in IL-1beta level in colon tissue at 5 to 20 mg/kg, ip administered daily for 10 days by IHC analysis; assay type: functional, organism-based; conditions: dose 5-20 mg/kg, time 10.0 day
[24] = test system: Mus musculus; experiment: Anti-inflammatory activity in DSS-induced colitis C57BL/6 mouse model harboring NLRP3 KO assessed as reduction in colon length shortening at 20 mg/kg, ip administered daily for 10 days; assay type: functional, organism-based; conditions: time 10.0 day
[25] = test system: Mus musculus; experiment: Anti-inflammatory activity in DSS-induced colitis C57BL/6 mouse model harboring NLRP3 KO assessed as reduction in intestinal mucosal damage in colon tissue at 20 mg/kg, ip administered daily for 10 days by H and E staining based analysis; assay type: functional, organism-based; conditions: time 10.0 day
[26] = test system: Mus musculus; experiment: Anti-inflammatory activity in DSS-induced colitis C57BL/6 mouse model harboring NLRP3 KO assessed as reduction in inflammatory cell infiltration in colon tissue at 20 mg/kg, ip administered daily for 10 days by H and E staining based analysis; assay type: functional, organism-based; conditions: time 10.0 day
[27] = test system: Mus musculus; experiment: Anti-inflammatory activity in DSS-induced colitis C57BL/6 mouse model harboring NLRP3 KO assessed as reduction in loss of intestinal crypts in colon tissue at 20 mg/kg, ip administered daily for 10 days by H and E staining based analysis; assay type: functional, organism-based; conditions: time 10.0 day
[28] = test system: Mus musculus; experiment: Anti-inflammatory activity in DSS-induced colitis C57BL/6 mouse model harboring NLRP3 KO assessed as reduction in IL-1beta level at 20 mg/kg, ip administered daily for 10 days […]; assay type: functional, organism-based; conditions: time 10.0 day

Structure (SMILES): O=C(Nc1c2c(cc3c1CCC3)CCC2)NS(=O)(=O)c1ccc(OCCOCCOCCOCCN2C(=O)/C(=C/c3cc(Br)c(O)c(Br)c3)c3cc(I)ccc32)cc1
- inhibition [1]: 45.8%
- inhibition [2]: 73.6%
- Activity [3]: Non-Toxic
- Activity [4]: inactive
- half-life [5]: 0.94 h
- AUC(0-t) at 24 h [6]: 2960 ng·h/mL
- AUC(0-inf) [7]: 2970 ng·h/mL
- Vd [8]: 2.31 L/kg
- clearance [9]: 28.4 mL/min/kg
- Vd [10]: 0.39 L/kg
- half-life [11]: 1.26 h
- Cmax [12]: 555 ng/mL
- AUC(0-t) at 24 h [13]: 551 ng·h/mL
- AUC(0-inf) [14]: 562 ng·h/mL
- bioavailability [15]: 19%
- Activity [16]: Active
- Activity [17]: Dose-Dependent Effect
- Activity [18]: Active
- Activity [19]: Active
- Activity [20]: Active
- Activity [21]: Active
- Activity [22]: Active
- Activity [23]: Active
- Activity [24]: inactive
- Activity [25]: inactive
- Activity [26]: inactive
- Activity [27]: inactive
- Activity [28]: inactive

Structure (SMILES): O=C(Nc1c2c(cc3c1CCC3)CCC2)NS(=O)(=O)c1ccc(OCCOCCOCCN2C(=O)/C(=C/c3cc(Br)c(O)c(Br)c3)c3cc(Br)ccc32)cc1
- inhibition [1]: 17.8%
- inhibition [2]: 45.2%

Structure (SMILES): COc1ccc(Cl)cc1C(=O)NCCc1ccc(S(=O)(=O)NCCOCCOCCOCCN2C(=O)/C(=C/c3cc(Br)c(O)c(OC)c3)c3cc(Br)ccc32)cc1
- inhibition [1]: 8.2%
- inhibition [2]: -4.9%

Structure (SMILES): COc1ccc(Cl)cc1C(=O)NCCc1ccc(S(=O)(=O)NCCOCCN2C(=O)/C(=C/c3cc(Br)c(O)c(OC)c3)c3cc(Br)ccc32)cc1
- inhibition [1]: 39%
- inhibition [2]: 23.1%

Structure (SMILES): COc1ccc(Cl)cc1C(=O)NCCc1ccc(S(=O)(=O)NCCCCCCCCN2C(=O)/C(=C/c3cc(Br)c(O)c(OC)c3)c3cc(Br)ccc32)cc1
- inhibition [1]: -7.2%
- inhibition [2]: 37.9%

Structure (SMILES): O=C(Nc1c2c(cc3c1CCC3)CCC2)NS(=O)(=O)c1ccc(OCCOCCN2C(=O)/C(=C/c3cc(Br)c(O)c(Br)c3)c3cc(Br)ccc32)cc1
- inhibition [1]: 20.5%
- inhibition [2]: 67.3%

Other lines, results leading:

- inhibition [1]: 42.8%
- inhibition [2]: 49.2%
Structure (SMILES): O=C(Nc1c2c(cc3c1CCC3)CCC2)NS(=O)(=O)c1ccc(OCCCCN2C(=O)/C(=C/c3cc(Br)c(O)c(Br)c3)c3cc(Br)ccc32)cc1

- inhibition [1]: -5.3%
- inhibition [2]: 39.6%
Structure (SMILES): O=C(Nc1c2c(cc3c1CCC3)CCC2)NS(=O)(=O)c1ccc(OCCCCCCCCN2C(=O)/C(=C/c3cc(Br)c(O)c(Br)c3)c3cc(Br)ccc32)cc1

- inhibition [1]: 27.7%
- inhibition [2]: 19.2%
Structure (SMILES): COc1cc(/C=C2/C(=O)N(CCCCCCCCOc3ccc(S(=O)(=O)NC(=O)Nc4c5c(cc6c4CCC6)CCC5)cc3)c3ccc(Br)cc32)cc(Br)c1O

- inhibition [1]: 35.6%
- inhibition [2]: 59.2%
Structure (SMILES): COc1cc(/C=C2/C(=O)N(CCOCCOc3ccc(S(=O)(=O)NC(=O)Nc4c5c(cc6c4CCC6)CCC5)cc3)c3ccc(Br)cc32)cc(Br)c1O

- inhibition [1]: 57.6%
- inhibition [2]: 32.7%
Structure (SMILES): COc1cc(/C=C2/C(=O)N(CCOCCOCCOCCOc3ccc(S(=O)(=O)NC(=O)Nc4c5c(cc6c4CCC6)CCC5)cc3)c3ccc(Br)cc32)cc(Br)c1O

- inhibition [1]: 41.9%
- inhibition [2]: 26.5%
Structure (SMILES): O=C(Nc1c2c(cc3c1CCC3)CCC2)NS(=O)(=O)c1ccc(OCCCCCCCCN2C(=O)/C(=C/c3cc(Br)c(O)c(Br)c3)c3cc(I)ccc32)cc1
